Five molecules from patent publication US8912121B2, “Herbicidal compositions comprising 4-amino-3-chloro-5-fluoro-6-(4-chloro-2-fluoro-3-methoxyphenyl)pyridine-2-carboxylic acid or a derivative thereof and certain PS II inhibitors” (Dow Agrosciences LLC, priority 2012, dated 2014) can be followed below.

Each structure is given as a SMILES string. Where two headings read alike, the source gives them in different places.

What all share (experiment): Postemergence foliar-applied mixtures, direct seeded rice, greenhouse
For test [1], the system named is BRAPP (Brachiaria platyphylla, broadleaf signalgrass). Format: in vivo, Brachiaria platyphylla (Griseb.) Nash. An excerpt: (§1) Seeds or nutlets of the desired test plant species were planted in a soil matrix prepared by mixing a loam or sandy loam soil (e.g., 28.6 percent silt, 18.8 percent clay, and 52.6 percent sand, with a pH of about 5.8 and an organic matter content of about 1.8 percent) and calcareous grit in an 80 to 20 ratio. The soil matrix was contained in plastic pots with a volume of 1 quart and a surface area of 83.6 square centimeters (cm^2). When required to ensure good germination and healthy plants, a fungicide treatment and/or other chemical or physical treatment was applied. The plants were grown for 8-22 days in a greenhouse with an approximate 14 h photoperiod which was maintained at about 29° C. during the day and 26° C. during the night. Nutrients (Peters Excel® 15-5-15 5-Ca 2-Mg and iron chelate) were applied in the irrigation solution as needed and water was added on a regular basis. Supplemental lighting was provided with overhead metal halide 1000-Watt lamps as necessary. The plants were employed for testing when they reached the first through fourth true leaf stage.
(§2) Treatments consisted of the acid or esters of 4-amino-3-chloro-5-fluoro-6-(4-chloro-2-fluoro-3-methoxy-phenyl) pyridine-2-carboxylic acid (Compound A), each formulated as an SC (suspension concentrate), and various herbicidal components alone and in combination. Forms of compound A were applied on an acid equivalent basis.
(§3) Other herbicidal components were applied on an active ingredient basis and included Photosystem II (PSII)-inhibiting herbicides propanil formulated as Stam® M4 EC, bentazon-sodium formulated as Basagran®, atrazine formulated as Atrazine 90 WDG, bromoxynil octanoate ester formulated as Buctril®, simetryne (technical grade material), simazine formulated as Princep® Caliber 90, ioxynil (technical grade material), cyanazine (technical grade material), and hexazinone (technical grade material).
Treatment requirements were calculated based upon the rates being tested, the concentration of active ingredient or acid equivalent in the formulation, and a 12 mL application volume at a rate of 187 L/ha.
(§4) For treatments comprised of formulated compounds, measured amounts of compounds were placed individually in 25 mL glass vials and diluted in a volume of 1.25% (v/v) Agri-Dex® crop oil concentrated to obtain 12× stock solutions. […] Application solutions were prepared by adding an appropriate amount of each stock solution (e.g., 1 mL) and diluted to the appropriate final concentrations with the addition of 10 mL of an aqueous mixture of 1.25% (v/v) crop oil concentrate so that the final spray solutions contained 1.25+/−0.05% (v/v) crop oil concentrate.
(§5) For treatments comprised of technical compounds, weighed amounts can be placed individually in 25 mL glass vials and dissolved in a volume of 97:3 v/v acetone/DMSO to obtain 12× stock solutions. […] Application solutions can be prepared by adding an appropriate amount of each stock solution (e.g., 1 mL) and diluted to the appropriate final concentrations with the addition of 10 mL of an aqueous mixture of 1.5% (v/v) crop oil concentrate so that the final spray solutions contain 1.25% (v/v) crop oil concentrate. When technical materials are used, the concentrated stock solutions can be added to the spray solutions so that the final acetone and DMSO concentrations of the application solutions are 16.2% and 0.5%, respectively.
For treatments comprised of formulated and technical compounds, weighed amounts of the technical materials were placed individually in 25 mL glass vials and dissolved in a volume of 97:3 v/v acetone/DMSO to obtain 12× stock solutions, and measured amounts of the formulated compounds were placed individually in 25 mL glass vials and diluted in a volume of 1.5% (v/v) crop oil concentrate or water to obtain 12× stock solutions. […]

The test system of test [2] is ECHCG (Echinochloa crusgalli, barnyardgrass). Format: in vivo, Echinochloa crusgalli (L.) Beauv. Here is the method:
as §1, with “When required to ensure good germination and healthy plants, a fungicide treatment and/or other chemical or physical treatment was applied.” left out
as §2, §3, §4, §5
For treatments comprised of formulated and technical compounds, weighed amounts of the technical materials were placed individually in 25 mL glass vials and dissolved in a volume of 97:3 v/v acetone/DMSO to obtain 12× stock solutions, and measured amounts of the formulated compounds were placed individually in 25 mL glass vials and diluted in a volume of 1.5% (v/v) crop oil concentrate or water to obtain 12× stock solutions. […] Application solutions were prepared by adding an appropriate amount of each stock solution (eg, 1 mL) and diluted to the appropriate final concentrations with the addition of an appropriate amount of an aqueous mixture of 1.5% (v/v) crop oil concentrate so that the final spray solutions contained 1.25% (v/v) crop oil concentrate.

Test [3] concerns IPOHE (Ipomoea hederacea, ivyleaf morningglory). Format: in vivo, Ipomoea hederacea Jacq. The settings on record: post-emergence. The procedure, abridged:
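Greenhouse plants in loam/grit soil (about 29/26°C, 14 h photoperiod) sprayed post-emergence at first to fourth true leaf stage at 187 L/ha. Compound A dosed as acid equivalent, partner PSII herbicides as active ingredient, alone and in mixtures, in spray solutions containing 1.25% crop oil concentrate.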

Take `CCNc1nc(Cl)nc(NC(C)C)n1` [Atrazine, 6-chloro-N-ethyl-N′-(1-methylethyl)-1,3,5-triazine-2,4-diamine, reference compound]: the “Visual Weed Control (%) Obs” value in test [1] (280 g ai/ha, 22 DAA) is on record as 0%; in test [1] (560 g ai/ha, 22 DAA), 0%; in test [2] (280 g ai/ha, 22 DAA) it was 0%; in test [2] (560 g ai/ha, 22 DAA), 20%; in test [2] (1120 g ai/ha, 22 DAA), 70%.

Take `COc1c(Cl)ccc(-c2nc(C(=O)O)c(Cl)c(N)c2F)c1F` [Compound A Acid, 4-amino-3-chloro-6-(4-chloro-2-fluoro-3-methoxyphenyl)-5-fluoropyridine-2-carboxylic acid]: the pest or weed control at 19.4 g/ha in test [3] (480 h, 19.4 g ae/ha, 20 DAA, read-out: Visual Weed Control (%) Obs) came out at 15%. Moreover, the pest or weed control at 21.2 g/ha in test [3] (480 h, 21.2 g ae/ha, 20 DAA, read-out: Visual Weed Control (%) Obs) was 35%. Further, the pest or weed control at 42.4 g/ha in test [3] (480 h, 42.4 g ae/ha, 20 DAA, read-out: Visual Weed Control (%) Obs) was 55%. The pest or weed control at 4.38 g/ha in test [3] (504 h, 4.38 g ae/ha, 21 DAA, read-out: Visual Weed Control (%) Obs) stood at 15%. Moreover, in test [3] (504 h, 8.75 g ae/ha, 21 DAA, read-out: Visual Weed Control (%) Obs), the pest or weed control at 8.75 g/ha worked out at 35%. Moreover, the “Visual Weed Control (%) Obs” value in test [1] (4.38 g ae/ha, 22 DAA) worked out at 45%; in test [1] (8.75 g ae/ha, 22 DAA), 70%; in test [2] (4.38 g ae/ha, 21 DAA), 33%; in test [2] (4.38 g ae/ha, 22 DAA) it was 20%; in test [2] (8.75 g ae/ha, 21 DAA), 55%.

For the molecule `COc1c(Cl)ccc(-c2nc(C(=O)OCc3ccccc3)c(Cl)c(N)c2F)c1F` [Compound A Benzyl Ester, benzyl ester of 4-amino-3-chloro-5-fluoro-6-(4-chloro-2-fluoro-3-methoxy-phenyl)pyridine-2-carboxylic acid], the pest or weed control at 32 g/ha in test [3] (480 h, read-out: Visual Weed Control (%) Obs, 32 g ae/ha, 20 DAA) came to 55%; in test [3] (504 h, read-out: Visual Weed Control (%) Obs, 32 g ae/ha, 21 DAA), 60%. The pest or weed control at 4.38 g/ha in test [3] (504 h, read-out: Visual Weed Control (%) Obs, 4.38 g ae/ha, 21 DAA) was found to be 0%. Besides, in test [3] (504 h, read-out: Visual Weed Control (%) Obs, 8 g ae/ha, 21 DAA), the pest or weed control at 8 g/ha was found to be 10%. Moreover, the pest or weed control at 8.75 g/ha in test [3] (504 h, read-out: Visual Weed Control (%) Obs, 8.75 g ae/ha, 21 DAA) amounted to 15%. Moreover, the pest or weed control at 16 g/ha in test [3] (504 h, read-out: Visual Weed Control (%) Obs, 16 g ae/ha, 21 DAA) amounted to 25%. In addition, the pest or weed control at 17.5 g/ha stood at 38% in test [3] (504 h, read-out: Visual Weed Control (%) Obs, 17.5 g ae/ha, 21 DAA) and 38% in test [3] (504 h, read-out: Visual Weed Control (%) Obs, 17.5 g ae/ha, 21 DAA (second set, r27-r31)). Moreover, in test [3] (504 h, read-out: Visual Weed Control (%) Obs, 35 g ae/ha, 21 DAA), the pest or weed control at 35 g/ha came out at 55%. Further, the “Visual Weed Control (%) Obs” value in test [1] (4.38 g ae/ha, 22 DAA) is listed as 55%; in test [1] (8 g ae/ha, 20 DAA) it was 55%; in test [1] (8.75 g ae/ha, 22 DAA), 70%; in test [1] (16 g ae/ha, 20 DAA) it was 90%; in test [1] (17.5 g ae/ha, 22 DAA), 75%; in test [1] (32 g ae/ha, 20 DAA), 90%. Moreover, the “Visual Weed Control (%) Obs” value in test [2] (4.38 g ae/ha, 21 DAA) amounted to 48%; in test [2] (8 g ae/ha, 20 DAA) it was 70%; in test [2] (8 g ae/ha, 21 DAA), 45%; in test [2] (8 g ae/ha, 22 DAA), 35%; in test [2] (8.75 g ae/ha, 21 DAA), 55%; in test [2] (16 g ae/ha, 20 DAA), 90%. For the same molecule, the “Visual Weed Control (%) Obs” value was 85% in test [2] (16 g ae/ha, 21 DAA); 65% in test [2] (16 g ae/ha, 22 DAA); 85% in test [2] (17.5 g ae/ha, 21 DAA); 90% in test [2] (32 g ae/ha, 20 DAA); 90% in test [2] (32 g ae/ha, 21 DAA); 80% in test [2] (32 g ae/ha, 22 DAA).

With `CCC(=O)Nc1ccc(Cl)c(Cl)c1` [Propanil, N-(3,4-dichlorophenyl)propanamide, reference compound], the pest or weed control at 3360 g/ha in test [3] (480 h, 3360 g ai/ha, 20 DAA, read-out: Visual Weed Control (%) Obs) was determined as 40%. For the same molecule, the pest or weed control at 420 g/ha in test [3] (504 h, 420 g ai/ha, 21 DAA, read-out: Visual Weed Control (%) Obs) turned out to be 0%. The pest or weed control at 840 g/ha in test [3] (504 h, 840 g ai/ha, 21 DAA, read-out: Visual Weed Control (%) Obs) was found to be 0%. Moreover, in test [3] (504 h, 1680 g ai/ha, 21 DAA, read-out: Visual Weed Control (%) Obs), the pest or weed control at 1680 g/ha was determined as 0%. Further, the “Visual Weed Control (%) Obs” value worked out at 10% in test [2] (420 g ai/ha, 21 DAA); 10% in test [2] (840 g ai/ha, 21 DAA); 40% in test [2] (1680 g ai/ha, 21 DAA).

As to `CCNc1nc(Cl)nc(NCC)n1` [Simazine, 6-chloro-N,N′-diethyl-1,3,5-triazine-2,4-diamine, reference compound], the “Visual Weed Control (%) Obs” value in test [1] (560 g ai/ha, 20 DAA) is 0%; in test [1] (1120 g ai/ha, 20 DAA), 0%; in test [1] (2240 g ai/ha, 20 DAA), 0%; in test [2] (560 g ai/ha, 20 DAA), 0%; in test [2] (1120 g ai/ha, 20 DAA) it was 0%; in test [2] (2240 g ai/ha, 20 DAA), 0%.
